# Reference: patent US6610860B2, “C7 ester substituted taxanes” (FSU Research Foundation, Inc., priority 2000, dated 2003)
# pIC50: −log10 of the molar value.
# Test system: HCT116 cells
# Test: In vitro cytotoxicity measured by the cell colony formation assay
# Format: cell-based
# Conditions: 72 h drug incubation, colonies counted after 7 days, ID50 = drug concentration producing 50% inhibition of colony formation, read-out: IN VITRO ID 50 (nm) HCT116
# Experimental: In Vitro Cytotoxicity Measured by the Cell Colony Formation Assay
# Four hundred cells (HCT116) were plated in 60 mm Petri dishes containing 2.7 mL of medium (modified McCoy's 5a medium containing 10% fetal bovine serum and 100 units/mL penicillin and 100 µg/mL streptomycin). The cells were incubated in a CO2 incubator at 37° C. for 5 h for attachment to the bottom of Petri dishes. The compounds identified in Example 2 were made up fresh in medium at ten times the final concentration, and then 0.3 mL of this stock solution was added to the 2.7 mL of medium in the dish. The cells were then incubated with drugs for 72 h at 37° C. At the end of incubation the drug-containing media were decanted, the dishes were rinsed with 4 mL of Hank's Balance Salt Solution (HBSS), 5 mL of fresh medium was added, and the dishes were returned to the incubator for colony formation. The cell colonies were counted using a colony counter after incubation for 7 days.
smiles,measurement,value
CC(=O)O[C@H]1C(=O)[C@@]2(C)[C@H]([C@H](OC(=O)c3ccccc3)[C@]3(O)C[C@H](OC(=O)[C@H](O)[C@@H](NC(=O)c4ccccc4)c4ccccc4)C(C)=C1C3(C)C)[C@]1(OC(C)=O)CO[C@@H]1C[C@@H]2O [taxol],pIC50,8.68
